In patent publication US12540136B2, “Pyrrolopyridine derivative and use thereof” (ST PHARM CO., LTD., priority 2020, dated 2026):
Where two headings read alike, the source gives them in different places.

Assays:
Format in all cases: cell-based
[1] = Cytotoxicity, MTS dye reduction assay; conditions: human; MT-4 cells, MTS dye reduction, 6 days incubation; read-out: CC50, HIV-1(NL4-3) in MT-4 Cells
Protocol: (§1) In order to determine the HIV-1 (Wild type) inhibitory effect of compounds of the present invention, a test was conducted as follows. The host cell was MT-4 cells and the virus strain was NL4-3 strain of HIV-1. The virus and cells were mixed in the presence of the compounds of the present invention, followed by incubation for 6 days. The antiviral effect was measured as a percentage decrease in viral cytopathic effect (CPE), and the cytotoxicity of the compounds was evaluated by MTS (CellTiter® 96 Reagent, Promega, Madison WI) dye reduction assay. 1.

HIV-1 (NL4-3) = assay: HIV-1 (wild type) inhibitory effect, decrease in viral cytopathic effect (CPE) in MT-4 cells; conditions: Human immunodeficiency virus 1, NL43, MT4, 144 h; NL4-3 strain, MT-4 host cells, 6 days incubation, CPE reduction
Protocol: as §1

MT-4 cells = assay: Cytotoxicity, MTS dye reduction assay
Protocol: as §1

| Structure (SMILES) | CC50 at 6 days [1] | EC50 (HIV-1 (NL4-3)) | CC50 (MT-4 cells; MT-4 cells, MTS dye reduction, 6 days incubation, read-out: CC50, HIV-1(NL4-3) in MT-4 Cells) | CC50 (MT-4 cells) |
| --- | --- | --- | --- | --- |
| CONC(=O)[C@@H](OC(C)(C)C)c1c(C)nc2c(c(C)c(C)n2Cc2cnn(C)c2)c1-c1ccc(Cl)cc1 [Example 9, (S)-2-(tert-butoxy)-2-(4-(4-chlorophenyl)-2,3,6-trimethyl-1-((1-methyl-1H-pyrazol-4-yl)methyl)-1H-pyrrolo[2,3-b]pyridin-5-yl)-N-methoxyacetamide] | 8.89 µM | – | – | – |
| Cc1nc2c(c(C)c(C)n2Cc2cnn(C)c2)c(-c2ccc(Cl)cc2)c1[C@H](OC(C)(C)C)C(=O)Nc1nn[nH]n1 [Example 14, (S)-2-(tert-butoxy)-2-(4-(4-chlorophenyl)-2,3,6-trimethyl-1-((1-methyl-1H-pyrazol-4-yl)methyl)-1H-pyrrolo[2,3-b]pyridin-5-yl)-N-(2H-tetrazol-5-yl)acetamide] | > 10 µM | > 10 µM | – | – |
| Cc1nc2c(c(C)c(C)n2CC2CCO2)c(-c2ccc(Cl)cc2)c1[C@H](OC(C)(C)C)C(=O)OCc1oc(=O)oc1C (stereo partly drawn) [Example 2, (5-Methyl-2-oxo-1,3-dioxol-4-yl)methyl (2S)-2-(tert-butoxy)-2-(4-(4-chlorophenyl)-2,3,6-trimethyl-1-(oxetan-2-ylmethyl)-1H-pyrrolo[2,3-b]pyridin-5-yl)acetate] | > 10 µM | 0.12 µM | – | – |
| COCCn1c(C)c(C)c2c(-c3ccc(Cl)cc3)c([C@H](OC(C)(C)C)C(=O)OCc3oc(=O)oc3C)c(C)nc21 [Example 3, (5-Methyl-2-oxo-1,3-dioxol-4-yl)methyl (S)-2-(tert-butoxy)-2-(4-(4-chlorophenyl)-1-(2-methoxyethyl)-2,3,6-trimethyl-1H-pyrrolo[2,3-b]pyridin-5-yl)acetate] | > 10 µM | 0.0227 µM | – | – |
| COCCOCCOC(=O)[C@@H](OC(C)(C)C)c1c(C)nc2c(c(C)c(C)n2Cc2cnn(C)c2)c1-c1ccc(Cl)cc1 [Example 16, 2-(2-Methoxyethoxy)ethyl (S)-2-(tert-butoxy)-2-(4-(4-chlorophenyl)-2,3,6-trimethyl-1-((1-methyl-1H-pyrazol-4-yl)methyl)-1H-pyrrolo[2,3-b]pyridin-5-yl)acetate] | > 10 µM | > 10 µM | – | – |
| Cc1nc2c(c(C)c(C)n2Cc2cnn(C)c2)c(-c2ccc(Cl)cc2)c1[C@H](OC(C)(C)C)/C(N)=N/O [Example 12, (S,Z)-2-(tert-butoxy)-2-(4-(4-chlorophenyl)-2,3,6-trimethyl-1-((1-methyl-1H-pyrazol-4-yl)methyl)-1H-pyrrole[2,3-b]pyridin-5-yl)-N′-hydroxyacetimidamide] | – | – | > 10 µM | – |
| CCCCCCCCCCCCCOC(=O)[C@@H](OC(C)(C)C)c1c(C)nc2c(c(C)c(C)n2Cc2cnn(C)c2)c1-c1ccc(Cl)cc1 [Example 1, Tridecyl (S)-2-(tert-butoxy)-2-(4-(4-chlorophenyl)-2,3,6-trimethyl-1-((1-methyl-1H-pyrazol-4-yl)methyl)-1H-pyrrolo[2,3-b]pyridin-5-yl)acetate] | > 10 µM | > 10 µM | – | – |
| Cc1nc2c(c(C)c(C)n2Cc2cnn(C)c2)c(-c2ccc(Cl)cc2)c1[C@H](OC(C)(C)C)C(=O)NO [Example 11, (S)-2-(tert-butoxy)-2-(4-(4-chlorophenyl)-2,3,6-trimethyl-1-((1-methyl-1H-pyrazol-4-yl)methyl)-1H-pyrrolo[2,3-b]pyridin-5-yl)-N-hydroxyacetamide] | 3.16 µM | – | – | – |
| Cc1nc2c(c(C)c(C)n2Cc2cnn(C)c2)c(-c2ccc(Cl)cc2)c1[C@@H](C#N)OC(C)(C)C [Example 6, (S)-2-(tert-butoxy)-2-(4-(4-chlorophenyl)-2,3,6-trimethyl-1-((1-methyl-1H-pyrazol-4-yl)methyl)-1H-pyrrolo[2,3-b]pyridin-5-yl)acetonitrile] | > 10 µM | > 10 µM | – | – |
| CON(C)C(=O)[C@@H](OC(C)(C)C)c1c(C)nc2c(c(C)c(C)n2Cc2cnn(C)c2)c1-c1ccc(Cl)cc1 [Example 10, (S)-2-(tert-butoxy)-2-(4-(4-chlorophenyl)-2,3,6-trimethyl-1-((1-methyl-1H-pyrazol-4-yl)methyl)-1H-pyrrolo[2,3-b]pyridin-5-yl)-N-methoxy-N-methylacetamide] | > 10 µM | > 10 µM | – | – |
| CNC(=O)[C@@H](OC(C)(C)C)c1c(C)nc2c(c(C)c(C)n2Cc2cnn(C)c2)c1-c1ccc(Cl)cc1 [Example 8, (S)-2-(tert-butoxy)-2-(4-(4-chlorophenyl)-2,3,6-trimethyl-1-((1-methyl-1H-pyrazol-4-yl)methyl)-1H-pyrrolo[2,3-b]pyridin-5-yl)-N-methylacetamide] | 4.98 µM | – | – | – |
| Cc1nc2c(c(C)c(C)n2Cc2cnn(C)c2)c(-c2ccc(Cl)cc2)c1[C@H](OC(C)(C)C)C(=O)OCc1oc(=O)oc1C [Example 4, (5-Methyl-2-oxo-1,3-dioxol-4-yl)methyl (S)-2-(tert-butoxy)-2-(4-(4-chlorophenyl)-2,3,6-trimethyl-1-((1-methyl-1H-pyrazol-4-yl)methyl)-1H-pyrrolo[2,3-b]pyridin-5-yl)acetate] | > 10 µM | 0.00527 µM | – | – |
| COC(=O)OCOC(=O)[C@@H](OC(C)(C)C)c1c(C)nc2c(c(C)c(C)n2Cc2cnn(C)c2)c1-c1ccc(Cl)cc1 [Example 15, ((Methoxycarbonyl)oxy)methyl (S)-2-(tert-butoxy)-2-(4-(4-chlorophenyl)-2,3,6-trimethyl-1-((1-methyl-1H-pyrazol-4-yl)methyl)-1H-pyrrolo[2,3-b]pyridin-5-yl)acetate] | > 10 µM | 0.0316 µM | – | – |
| Cc1nc2c(c(C)c(C)n2Cc2cnn(C)c2)c(-c2ccc(Cl)cc2)c1[C@H](OC(C)(C)C)c1nnn[nH]1 [Example 7, (S)-5-(tert-butoxy(1H-tetrazol-5-yl)methyl)-4-(4-chlorophenyl)-2,3,6-trimethyl-1-((1-methyl-1H-pyrazol-4-yl)methyl)-1H-pyrrolo[2,3-b]pyridine] | > 10 µM | 0.361 µM | – | – |
| Cc1nc([C@@H](OC(C)(C)C)c2c(C)nc3c(c(C)c(C)n3Cc3cnn(C)c3)c2-c2ccc(Cl)cc2)no1 [Example 13, (S)-3-(tert-butoxy (4-(4-chlorophenyl)-2,3,6-trimethyl-1-((1-methyl-1-1H-pyrazol-4-yl)methyl)-1H-pyrrolo[2,3-b]pyridin-5-yl)methyl)-5-methyl-1,2,4-oxadiazole] | – | – | – | > 10 µM |
| Cc1nc2c(c(C)c(C)n2Cc2cnn(C)c2)c(-c2ccc(Cl)cc2)c1[C@H](OC(C)(C)C)C(N)=O [Example 5, (S)-2-(tert-butoxy)-2-(4-(4-chlorophenyl)-2,3,6-trimethyl-1-((1-methyl-1H-pyrazol-4-yl)methyl)-1H-pyrrolo[2,3-b]pyridin-5-yl)acetamide] | > 10 µM | > 10 µM | – | – |
